Counter-ions that a name gives are not always drawn.
Question: With `CCCCCCCCNc1nc(-c2ccncc2)cc(=O)n1C` as the compound, how does the melting point read?
Answer: The melting point was 114 to 116 °C.

Question: Which melting point does the source give for `Cn1c(NCc2cccc(CN)c2)nc(-c2ccncc2)cc1=O` (as salt: hydrochloride) here?
Answer: Its melting point is 193 to 197 °C.

Question: For `NCCCCCCNc1nc(-c2ccncc2)cc(=O)n1CCCc1ccccc1` (as salt: hydrochloride), which melting point is on record?
Answer: Its melting point is 142 to 143 °C.

Question: For `NCCCCCCNc1nc(-c2ccncc2)cc(=O)n1CCc1ccccc1` (as salt: hydrochloride), which melting point is on record?
Answer: Its melting point is 225 to 228 °C.

Question: Which melting point does the source give for `NCCCCCCn1c(NCCCc2ccccc2)nc(-c2ccncc2)cc1=O` (as salt: hydrochloride) here?
Answer: Its melting point is 192 to 195 °C.

Question: Which melting point does the source give for `NCCCCCCn1c(NCCc2ccccc2)nc(-c2ccncc2)cc1=O` (as salt: hydrochloride) here?
Answer: Its melting point is 125 to 127 °C.

Question: For `CN(C)CCn1c(NCCCc2ccccc2)nc(-c2ccncc2)cc1=O` (as salt: hydrochloride), which melting point is on record?
Answer: The melting point was 212 to 215 °C.

Question: Which melting point does the source give for `NCCCCCCNc1nc(-c2ccncc2)cc(=O)n1Cc1ccccc1` (as salt: hydrochloride) here?
Answer: The melting point was 292 to 298 °C.

Question: Which melting point does the source give for `Cn1c(NCc2cccc(OCCCN)c2)nc(-c2ccncc2)cc1=O` (as salt: hydrochloride) [Compound 26, 2-[[[3-(3-aminopropoxy)phenyl]methyl]amino]-3-methyl-6-pyridin-4-ylpyrimidin-4(3H)-one] here?
Answer: Its melting point is 193 to 196 °C.

Question: With `Cn1c(NCCCCCN)nc(-c2ccncc2)cc1=O` (as salt: hydrochloride) [Compound 40, 2-(5-Amino-pentylamino)-3-methyl-6-pyridin-4-yl-3H-pyrimidin-4-one] as the compound, how does the melting point read?
Answer: Its melting point is 259 to 262 °C.

Question: With `NCCCCNc1nc(-c2ccncc2)cc(=O)n1CCCc1ccccc1` (as salt: hydrochloride) [Compound 41, 2-(4-Amino-butylamino)-3-(3-phenyl-propyl)-6-pyridin-4-yl-3H-pyrimidin-4-one] as the compound, how does the melting point read?
Answer: Its melting point is 134 to 136 °C.

Question: With `NCCCCCNc1nc(-c2ccncc2)cc(=O)n1CCc1ccccc1` (as salt: hydrochloride) [Compound 43, 2-(5-Amino-pentylamino)-3-phenethyl-6-pyridin-4-yl-3H-pyrimidin-4-one] as the compound, how does the melting point read?
Answer: Its melting point is 235 to 238 °C.

Question: Which melting point does the source give for `NCCCCNc1nc(-c2ccncc2)cc(=O)n1CCc1ccccc1` (as salt: hydrochloride) [Compound 45, 2-(4-Amino-butylamino)-3-phenethyl-6-pyridin-4-yl-3H-pyrimidin-4-one] here?
Answer: The melting point was 246 to 248 °C.

Question: Which melting point does the source give for `CCCCCCCCCCNc1nc(-c2ccncc2)cc(=O)n1C` (as salt: hydrochloride) [Compound 53, 2-Decylamino-3-methyl-6-pyridin-4-yl-3H-pyrimidin-4-one] here?
Answer: Its melting point is 162 to 164 °C.

Question: With `CN(CCCC1CCCCC1)c1nc(-c2ccncc2)cc(=O)n1C` (as salt: hydrochloride) [Compound 68, 2-[(3-Cyclohexyl-propyl)-methyl-amino]-3-methyl-6-pyridin-4-yl-3H-pyrimidin-4-one] as the compound, how does the melting point read?
Answer: The melting point was 188 to 191 °C.

Question: For `Cn1c(NCc2cccc(OCCC3CCNCC3)c2)nc(-c2ccncc2)cc1=O` (as salt: hydrochloride) [Compound 72, 3-methyl-2-[3-(2-piperidin-4-yl-ethoxy)-benzylamino]-6-pyridin-4-yl-3H-pyrimidin-4-one], which melting point is on record?
Answer: Its melting point is 225 to 232 °C.

Question: Which melting point does the source give for `CNCc1ccc(CCN(C)c2nc(-c3ccncc3)cc(=O)n2C)cc1` (as salt: hydrochloride) [Compound 75, 3-Methyl-2-{methyl-[2-(4-methylaminomethyl-phenyl)-ethyl]-amino}-6-pyridin-4-yl-3H-pyrimidin-4-one] here?
Answer: The melting point was 157 to 160 °C.

Question: For `Cn1c(N(CCCN)CCCc2ccccc2)nc(-c2ccncc2)cc1=O` (as salt: hydrochloride) [Compound 77, 2-[(3-Amino-propyl)-(3-phenyl-propyl)-amino]-3-methyl-6-pyridin-4-yl-3H-pyrimidin-4-one], which melting point is on record?
Answer: Its melting point is 185 to 189 °C.

Question: With `NCCCCCn1c(NCCCc2ccccc2)nc(-c2ccncc2)cc1=O` (as salt: hydrochloride) [Compound 79, 3-(5-Amino-pentyl)-2-(3-phenyl-propylamino)-6-pyridin-4-yl-3H-pyrimidin-4-one] as the compound, how does the melting point read?
Answer: The melting point was 123 to 126 °C.

Question: For `NCCCCn1c(NCCCc2ccccc2)nc(-c2ccncc2)cc1=O` (as salt: hydrochloride) [Compound 80, 3-(4-Amino-butyl)-2-(3-phenyl-propylamino)-6-pyridin-4-yl-3H-pyrimidin-4-one], which melting point is on record?
Answer: Its melting point is 124 to 127 °C.

Question: For `Cn1c(NCc2cccc(OCCCc3ccncc3)c2)nc(-c2ccncc2)cc1=O` (as salt: hydrochloride) [Compound 81, 3-Methyl-6-pyridin-4-yl-2-[3-(3-pyridin-4-yl-propoxy)-benzylamino]-3H-pyrimidin-4-one], which melting point is on record?
Answer: The melting point was 210 to 213 °C.

Question: With `NCCn1c(NCCCc2ccccc2)nc(-c2ccncc2)cc1=O` (as salt: hydrochloride) [Compound 84, 3-(2-Amino-ethyl)-2-(3-phenyl-propylamino)-6-pyridin-4-yl-3H-pyrimidin-4-one] as the compound, how does the melting point read?
Answer: The melting point was 145 to 148 °C.

Question: With `COc1ccccc1CCNc1nc(-c2ccncc2)cc(=O)n1CCCN` (as salt: hydrochloride) [Compound 85, 3-(3-Amino-propyl)-2-[2-(2-methoxy-phenyl)-ethylamino]-6-pyridin-4-yl-3H-pyrimidin-4-one] as the compound, how does the melting point read?
Answer: Its melting point is 198 to 201 °C.

Question: With `NCCCCCn1c(NCCc2ccccc2)nc(-c2ccncc2)cc1=O` (as salt: hydrochloride) [Compound 88, 3-(5-Amino-pentyl)-2-phenethylamino-6-pyridin-4-yl-3H-pyrimidin-4-one] as the compound, how does the melting point read?
Answer: Its melting point is 178 to 180 °C.

Question: Which melting point does the source give for `NCCCCn1c(NCCc2ccccc2)nc(-c2ccncc2)cc1=O` (as salt: hydrochloride) [Compound 89, 3-(4-Amino-butyl)-2-phenethylamino-6-pyridin-4-yl-3H-pyrimidin-4-one] here?
Answer: The melting point was 170 to 175 °C.

Question: With `NCCCCNc1nc(-c2ccncc2)cc(=O)n1Cc1ccccc1` (as salt: hydrochloride) [Compound 90, 2-(4-Amino-butylamino)-3-benzyl-6-pyridin-4-yl-3H-pyrimidin-4-one] as the compound, how does the melting point read?
Answer: Its melting point is 163 to 168 °C (dec.).

Question: For `Cn1c(NCC=Cc2ccccc2)nc(-c2ccncc2)cc1=O` (as salt: hydrochloride) [Compound 95, 3-Methyl-2-(3-phenyl-allylamino)-6-pyridin-4-yl-3 H-pyrimidin-4-one], which melting point is on record?
Answer: Its melting point is 198 to 200 °C.

Question: For `Cn1c(NCCCc2ccccc2)nc(-c2ccncc2)cc1=O` (as salt: hydrochloride) [Compound 96, 3-Methyl-2-(3-phenyl-propylamino)-6-pyridin-4-yl-3H-pyrimidin-4-one], which melting point is on record?
Answer: Its melting point is 187 to 189 °C.

Question: With `Cn1c(NCCc2c[nH]c3ccccc23)nc(-c2ccncc2)cc1=O` (as salt: oxalate) [Compound 29, 2-[[2-(1H-indol-3-yl)ethyl]amino]-3-methyl-6-pyridin-4-ylpyrimidin-4(3H)-one] as the compound, how does the melting point read?
Answer: Its melting point is 217 to 218 °C.

Question: With `CCNc1nc(-c2ccncc2)cc(=O)n1C` (as salt: oxalate) [Compound 36, 2-(ethylamino)-3-methyl-6-pyridin-4-ylpyrimidin-4(3H)-one] as the compound, how does the melting point read?
Answer: The melting point was 239 to 241 °C.

Question: For `Cn1c(N2CCCCC2)nc(-c2ccncc2)cc1=O` (as salt: tartrate) [Compound 38, 2-(piperidin-1-yl)-3-methyl-6-pyridin-4-ylpyrimidin-4(3H)-one], which melting point is on record?
Answer: Its melting point is 228 to 230 °C.

Question: Which melting point does the source give for `COc1ccccc1CCNc1nc(-c2ccncc2)cc(=O)n1C` [Compound 4, 2-[[2-(2-methoxyphenyl)ethyl]amino]-3-methyl-6-pyridin-4-ylpyrimidin-4(3H)-one] here?
Answer: The melting point was 149.2 to 149.5 °C.

Question: Which melting point does the source give for `Cn1c(NCCc2ccccc2F)nc(-c2ccncc2)cc1=O` [Compound 5, 2-[[2-(2-fluorophenyl)ethyl]amino]-3-methyl-6-pyridin-4-ylpyrimidin-4(3H)-one] here?
Answer: The melting point was 184 to 187.2 °C.

Question: With `Cn1c(NCCc2cccc(F)c2)nc(-c2ccncc2)cc1=O` [Compound 6, 2-[[2-(3-fluorophenyl)ethyl]amino]-3-methyl-6-pyridin-4-ylpyrimidin-4(3H)-one] as the compound, how does the melting point read?
Answer: Its melting point is 158.9 to 159.2 °C.

Question: With `Cn1c(NCCc2ccc(F)cc2)nc(-c2ccncc2)cc1=O` [Compound 7, 2-[[2-(4-fluorophenyl)ethyl]amino]-3-methyl-6-pyridin-4-ylpyrimidin-4(3H)-one] as the compound, how does the melting point read?
Answer: The melting point was 178.8 to 178.9 °C.

Question: Which melting point does the source give for `Cn1c(NCCc2ccccc2Cl)nc(-c2ccncc2)cc1=O` [Compound 9, 2-[[2-(2-chlorophenyl)ethyl]amino]-3-methyl-6-pyridin-4-ylpyrimidin-4(3H)-one] here?
Answer: The melting point was 175.2 to 175.4 °C.

Question: For `Cn1c(NCCc2ccc(N)cc2)nc(-c2ccncc2)cc1=O` [Compound 11, 2-[[2-(4-aminophenyl)ethyl]amino]-3-methyl-6-pyridin-4-ylpyrimidin-4(3H)-one], which melting point is on record?
Answer: The melting point was 197.3 to 197.5 °C.

Question: Which melting point does the source give for `COc1ccc(CCNc2nc(-c3ccncc3)cc(=O)n2C)cc1OC` [Compound 12, 2-[[2-(3,4-dimethoxyphenyl)ethyl]amino]-3-methyl-6-pyridin-4-ylpyrimidin-4(3H)-one] here?
Answer: Its melting point is 187 to 187.1 °C.

Question: Which melting point does the source give for `COc1ccc(OC)c(CCNc2nc(-c3ccncc3)cc(=O)n2C)c1` [Compound 13, 2-[[2-(2,5-dimethoxyphenyl)ethyl]amino]-3-methyl-6-pyridin-4-ylpyrimidin-4(3H)-one] here?
Answer: The melting point was 180.9 to 181.3 °C.

Question: Which melting point does the source give for `Cn1c(NCCc2ccc(Cl)cc2)nc(-c2ccncc2)cc1=O` [Compound 14, 2-[[2-(4-chlorophenyl)ethyl]amino]-3-methyl-6-pyridin-4-ylpyrimidin-4(3H)-one] here?
Answer: Its melting point is 165.3 to 165.5 °C.

Question: For `Cn1c(NCCc2ccc(O)cc2)nc(-c2ccncc2)cc1=O` [Compound 15, 2-[[2-(4-hydroxyphenyl)ethyl]amino]-3-methyl-6-pyridin-4-ylpyrimidin-4(3H)-one], which melting point is on record?
Answer: Its melting point is 257.4 to 257.9 °C.

Question: With `Cc1ccc(CCNc2nc(-c3ccncc3)cc(=O)n2C)cc1` [Compound 16, 2-[[2-(4-methylphenyl)ethyl]amino]-3-methyl-6-pyridin-4-ylpyrimidin-4(3H)-one] as the compound, how does the melting point read?
Answer: Its melting point is 184.7 to 185 °C.

Question: With `Cn1c(NCCc2cccc(Cl)c2)nc(-c2ccncc2)cc1=O` [Compound 18, 2-[[2-(3-chlorophenyl)ethyl]amino]-3-methyl-6-pyridin-4-ylpyrimidin-4(3H)-one] as the compound, how does the melting point read?
Answer: Its melting point is 162.8 to 163 °C.

Source: patent publication US7378413B2, “2-amino-3-(alkyl)-pyrimidone derivatives” (Sanofi Aventis, priority 2000, dated 2008)
